Source: publication PMC2267209, “Transepithelial Transport and Enzymatic Detoxification of Gluten in Gluten-Sensitive Rhesus Macaques” (PLoS ONE, 2008)
Values belong to the substance of their own block, whether it stands above or below them.

Tests used:
[1] = rhesus monkey, in vivo
Experimental: A 0.5 ml sample of EDTA-blood was collected from an ear vein at 0, 30, 60, 120, and 180 min following the 33-mer inoculation. […] Animals were fasted at least 2 h prior to peptide inoculations. Blood collections and 33-mer inoculations were performed with sedated and anesthetized animals.
Following peptide dosing and peripheral plasma collection, described above, plasma proteins were precipitated by addition of acetonitrile. Plasma was mixed with an equal volume of cold acetonitrile+0.1% formic acid, vortexed, incubated for 2 h at 4°C, and centrifuged at 14,000•g for 10 min at 4°C. […] When quantitation was performed, unlabeled 33-mer was spiked into the plasma samples prior to acetonitrile precipitation as an internal control (5 pmol/100 µl injection) and injections were performed at least in triplicate.
Mass spectrometry analysis was performed as previously described [20] with the following modifications. […] For ^D933-mer, the transitions monitored were m/z 981.0^4+→263.1^+ (30V cone voltage, 27eV collision energy.) for the quantitation assay and m/z 1307.7^3+→263.1^+ (40V cone voltage, 50eV collision energy) as a confirmatory transition. […] Levels of ^D933-mer in each sample were determined by comparison of the area under the ^D933-mer transition peak to the area under the internal standard transition peak. […]

[2] = system: gluten-sensitive rhesus macaque FH45; experiment: Daily gluten challenge with or without oral EP-B2, clinical score; type: in vivo, rhesus macaques (Macaca mulatta)
Source text: Gluten-sensitive FH45 and control FI96 were switched from a gluten-containing to a gluten-free diet at week 0, re-challenged with the gluten-containing diet from week 10.4 to 11.4, and then returned to a gluten-free diet for the remainder of the experiment. To test whether orally administered EP-B2 can prevent clinical symptoms resulting from gluten challenge, animals were fed a gluten-free diet with the addition of a daily slice of unbleached wheat bread (∼4 g gluten) for 8 weeks (weeks 22.9 to 30.9), during the first 4 of which (weeks 22.9 to 26.9) gluten-sensitive macaque FH45 received a daily dose of 2 g recombinant proEP-B2 dissolved in an electrolyte drink immediately prior to bread consumption. Recombinant proEP-B2 was expressed and purified as previously described, [31]. Peripheral blood samples (1 ml) were collected every 1–2 weeks from a femoral vein, and plasma was harvested and stored at −80 °C until analyzed for AGA and anti-TG2 antibodies. Clinical health was monitored as previously described. Briefly, daily clinical scores were averaged over weekly intervals to obtain each weekly mean±standard deviation. Criteria for clinical scoring (1–6 scale) were scaled relative to “clinically normal”, age-matched controls, i.e. score of 1. Score 2 corresponded to beginning of diarrhea, i.e. pasty stools. Score 3 corresponded to semi-liquid stools and decreased activity. […]

[3] = system: gluten-sensitive rhesus macaque FH45; experiment: Indirect ELISA for plasma AGA and anti-TG2 antibodies during gluten challenge with EP-B2; type: in vivo, rhesus macaques (Macaca mulatta)
Source text: Gluten-sensitive FH45 and control FI96 were switched from a gluten-containing to a gluten-free diet at week 0, re-challenged with the gluten-containing diet from week 10.4 to 11.4, and then returned to a gluten-free diet for the remainder of the experiment. To test whether orally administered EP-B2 can prevent clinical symptoms resulting from gluten challenge, animals were fed a gluten-free diet with the addition of a daily slice of unbleached wheat bread (∼4 g gluten) for 8 weeks (weeks 22.9 to 30.9), during the first 4 of which (weeks 22.9 to 26.9) gluten-sensitive macaque FH45 received a daily dose of 2 g recombinant proEP-B2 dissolved in an electrolyte drink immediately prior to bread consumption. Recombinant proEP-B2 was expressed and purified as previously described, [31]. Peripheral blood samples (1 ml) were collected every 1–2 weeks from a femoral vein, and plasma was harvested and stored at −80 °C until analyzed for AGA and anti-TG2 antibodies. Clinical health was monitored as previously described. Briefly, daily clinical scores were averaged over weekly intervals to obtain each weekly mean±standard deviation. Criteria for clinical scoring (1–6 scale) were scaled relative to “clinically normal”, age-matched controls, i.e. score of 1. Score 2 corresponded to beginning of diarrhea, i.e. pasty stools. Score 3 corresponded to semi-liquid stools and decreased activity. Score 4 corresponded to liquid stools, decreased activity, moderate dehydration and “balloon” stomach. Score 5 corresponded to liquid stools, depression, severe dehydration and balloon stomach. Score 6 corresponded to a moribund animal where prompt euthanasia is recommended.
ELISA assays were performed as previously described.

[4] = system: celiac patient-derived T cells; details: ref [2], [19], cited from earlier work
[5] = daily 2 g proEP-B2 plus wheat bread

Detection of peptide in peripheral plasma at 60 minutes [1]: detected | Concentration in peripheral plasma at 60 minutes ([1]; SD): 7.0 ± 0.4 nM
Substance: LQLQPFPQPQLPYPQPQLPYPQPQLPYPQPQPF [^D933-mer]

Substance: EP-B2: gluten-specific barley cysteine endoprotease, dosed orally as recombinant proenzyme; oral glutenase drug candidate for celiac disease
Clinical health during gluten challenge with EP-B2 ([2]; daily 2 g recombinant proEP-B2 oral immediately before a daily slice of wheat bread (∼4 g gluten), first 4 weeks (weeks 22.9 to 26.9), clinical score 1–6 scale): remained clinically healthy | Time to signs of clinical illness after EP-B2 dosing was concluded ([2]; wheat bread gluten challenge continued without EP-B2 (weeks 26.9 to 30.9)): ~1 week | Anti-TG2 IgA ([3]; EP-B2 treatment with gluten challenge): unable to detect | AGA levels during wheat bread/EP-B2 administration relative to gluten-containing diet (week 0) [3, 5]: ~3 fold | Anti-TG2 IgG levels over the course of EP-B2 treatment [3, 5]: elevated

Substance: LQLQPFPQPQLPYPQPQLPYPQPQLPYPQPQPF [33-mer, immunotoxic 33-mer gluten peptide derived from gastrointestinal proteolysis of α2-gliadin; unlabeled form used as internal standard]
Concentration sufficient to stimulate proliferation of celiac patient-derived T cells ([4]; T cells in culture): low nanomolar concentrations | Proliferation of celiac patient-derived T cell lines ([4]; all T cell lines tested so far): activates proliferation in all celiac patient-derived T cell lines tested so far
